Test results as given in the kinase profiling compilation of Christmann-Franck et al. (2016).

What was measured:
Experiment in all cases: radiometric filter-binding kinase assay, Kinase HotSpot
Conditions in all cases: compound 0.5 µM; ATP 10 µM
PDGFRA (human) = PDGFRA (human) (UniProt P16234)
RPS6KA1 KD1 KD2 (human) = RPS6KA1 KD1 KD2 (human) (UniProt Q15418)
CSNK2A1 (human) = CSNK2A1 (human) (UniProt P68400)
WNK3 (human) = WNK3 (human) (UniProt Q9BYP7)
TGFBR2 (human) = TGFBR2 (human) (UniProt P37173)
PAK1 (human) = PAK1 (human) (UniProt Q13153)
MAPKAPK3 (human) = MAPKAPK3 (human) (UniProt Q16644)
KIT (human) = KIT (human) (UniProt P10721)
CAMK2B (human) = CAMK2B (human) (UniProt Q13554)
STK10 (human) = STK10 (human) (UniProt O94804)
TBK1 (human) = TBK1 (human) (UniProt Q9UHD2)
CHEK1 (human) = CHEK1 (human) (UniProt O14757)
GRK5 (human) = GRK5 (human) (UniProt P34947)
AXL (human) = AXL (human) (UniProt P30530)
MAPK11 (human) = MAPK11 (human) (UniProt Q15759)
RPS6KA2 KD1 KD2 (human) = RPS6KA2 KD1 KD2 (human) (UniProt Q15349)
CDK6 CCND3 (human) = CDK6 CCND3 (human) (UniProt P30281+Q00534)
PLK3 (human) = PLK3 (human) (UniProt Q9H4B4)
ERBB4 (human) = ERBB4 (human) (UniProt Q15303)
SRC (human) = SRC (human) (UniProt P12931)
PRKD1 (human) = PRKD1 (human) (UniProt Q15139)
FYN (human) = FYN (human) (UniProt P06241)
CDK1 CCNB1 (human) = CDK1 CCNB1 (human) (UniProt P06493+P14635)
WEE1 (human) = WEE1 (human) (UniProt P30291)
PRKD2 (human) = PRKD2 (human) (UniProt Q9BZL6)
RAF1 (human) = RAF1 (human) (UniProt P04049)
MAPK1 (human) = MAPK1 (human) (UniProt P28482)
CDK9 CCNT1 (human) = CDK9 CCNT1 (human) (UniProt P50750+O60563)
RET (human) = RET (human) (UniProt P07949)
CDK5 CDK5R1 p25 (human) = CDK5 CDK5R1 p25 (human) (UniProt Q00535+Q15078)
FRK (human) = FRK (human) (UniProt P42685)
ALK (human) = ALK (human) (UniProt Q9UM73)
CSNK1A1 (human) = CSNK1A1 (human) (UniProt P48729)
MAPK13 (human) = MAPK13 (human) (UniProt O15264)
FLT3 (human) = FLT3 (human) (UniProt P36888)
GRK7 (human) = GRK7 (human) (UniProt Q8WTQ7)
MAP4K5 (human) = MAP4K5 (human) (UniProt Q9Y4K4)
GRK4 (human) = GRK4 (human) (UniProt P32298)
FLT1 (human) = FLT1 (human) (UniProt P17948)
PRKACA (human) = PRKACA (human) (UniProt P17612)
EPHB4 (human) = EPHB4 (human) (UniProt P54760)

SRC (human), sequence (P12931 whole entry, looked up): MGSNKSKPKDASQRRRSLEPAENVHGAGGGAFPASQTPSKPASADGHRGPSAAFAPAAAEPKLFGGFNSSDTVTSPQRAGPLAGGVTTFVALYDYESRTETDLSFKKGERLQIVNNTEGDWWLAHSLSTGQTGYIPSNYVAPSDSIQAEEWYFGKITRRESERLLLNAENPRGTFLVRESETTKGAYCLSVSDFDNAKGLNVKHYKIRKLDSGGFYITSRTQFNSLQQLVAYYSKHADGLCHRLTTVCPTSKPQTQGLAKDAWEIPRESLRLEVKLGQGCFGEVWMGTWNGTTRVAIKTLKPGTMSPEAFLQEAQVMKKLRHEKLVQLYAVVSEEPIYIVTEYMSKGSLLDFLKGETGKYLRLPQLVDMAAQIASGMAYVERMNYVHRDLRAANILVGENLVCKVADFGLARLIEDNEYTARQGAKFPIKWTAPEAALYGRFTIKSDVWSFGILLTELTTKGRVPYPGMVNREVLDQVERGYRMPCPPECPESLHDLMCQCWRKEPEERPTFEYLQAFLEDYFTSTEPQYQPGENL
WNK3 (human), sequence (Q9BYP7 whole entry, looked up): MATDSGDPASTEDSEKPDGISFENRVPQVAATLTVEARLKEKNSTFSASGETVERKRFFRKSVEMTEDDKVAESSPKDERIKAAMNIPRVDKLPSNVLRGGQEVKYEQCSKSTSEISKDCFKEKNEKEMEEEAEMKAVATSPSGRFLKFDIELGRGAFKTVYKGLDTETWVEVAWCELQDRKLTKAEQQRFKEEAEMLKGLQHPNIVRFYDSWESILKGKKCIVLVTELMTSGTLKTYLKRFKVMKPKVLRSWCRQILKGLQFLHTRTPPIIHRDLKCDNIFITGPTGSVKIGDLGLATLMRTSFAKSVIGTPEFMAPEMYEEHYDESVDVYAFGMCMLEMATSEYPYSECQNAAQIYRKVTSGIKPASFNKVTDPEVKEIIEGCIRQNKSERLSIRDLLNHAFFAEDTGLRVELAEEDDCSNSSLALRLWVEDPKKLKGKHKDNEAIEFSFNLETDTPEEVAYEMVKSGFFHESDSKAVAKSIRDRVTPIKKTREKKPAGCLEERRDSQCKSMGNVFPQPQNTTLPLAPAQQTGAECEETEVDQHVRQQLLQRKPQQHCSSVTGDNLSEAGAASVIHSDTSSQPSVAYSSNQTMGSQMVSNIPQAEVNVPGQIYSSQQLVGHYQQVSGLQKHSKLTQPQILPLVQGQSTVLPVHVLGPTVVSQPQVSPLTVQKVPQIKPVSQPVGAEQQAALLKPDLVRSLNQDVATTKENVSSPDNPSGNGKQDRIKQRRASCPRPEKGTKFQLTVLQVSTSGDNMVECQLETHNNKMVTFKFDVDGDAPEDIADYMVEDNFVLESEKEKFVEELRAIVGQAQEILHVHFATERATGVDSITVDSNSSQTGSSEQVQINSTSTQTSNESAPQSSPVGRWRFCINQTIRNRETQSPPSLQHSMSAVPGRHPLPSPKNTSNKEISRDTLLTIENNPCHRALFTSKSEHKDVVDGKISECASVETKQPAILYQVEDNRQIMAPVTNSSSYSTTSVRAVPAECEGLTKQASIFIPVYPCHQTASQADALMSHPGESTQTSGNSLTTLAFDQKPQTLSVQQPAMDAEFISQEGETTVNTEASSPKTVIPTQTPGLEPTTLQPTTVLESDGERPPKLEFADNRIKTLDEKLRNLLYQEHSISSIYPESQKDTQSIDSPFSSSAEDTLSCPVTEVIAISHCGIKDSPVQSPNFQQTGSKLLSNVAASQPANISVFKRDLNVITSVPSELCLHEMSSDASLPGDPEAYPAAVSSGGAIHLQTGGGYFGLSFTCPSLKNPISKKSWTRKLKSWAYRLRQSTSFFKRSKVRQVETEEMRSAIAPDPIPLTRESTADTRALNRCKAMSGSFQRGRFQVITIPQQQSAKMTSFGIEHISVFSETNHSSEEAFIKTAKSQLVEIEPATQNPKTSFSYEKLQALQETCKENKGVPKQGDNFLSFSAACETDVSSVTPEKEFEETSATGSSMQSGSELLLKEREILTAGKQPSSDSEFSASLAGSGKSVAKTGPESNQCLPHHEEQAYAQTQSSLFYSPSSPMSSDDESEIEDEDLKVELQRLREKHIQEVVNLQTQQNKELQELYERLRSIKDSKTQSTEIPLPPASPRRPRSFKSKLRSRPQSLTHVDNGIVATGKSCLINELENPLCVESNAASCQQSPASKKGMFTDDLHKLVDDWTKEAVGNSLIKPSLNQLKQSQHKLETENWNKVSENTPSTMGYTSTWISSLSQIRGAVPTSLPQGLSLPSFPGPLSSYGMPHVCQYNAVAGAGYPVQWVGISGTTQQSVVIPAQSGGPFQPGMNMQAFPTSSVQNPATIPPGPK
RPS6KA1 KD1 KD2 (human), sequence (Q15418 whole entry, looked up): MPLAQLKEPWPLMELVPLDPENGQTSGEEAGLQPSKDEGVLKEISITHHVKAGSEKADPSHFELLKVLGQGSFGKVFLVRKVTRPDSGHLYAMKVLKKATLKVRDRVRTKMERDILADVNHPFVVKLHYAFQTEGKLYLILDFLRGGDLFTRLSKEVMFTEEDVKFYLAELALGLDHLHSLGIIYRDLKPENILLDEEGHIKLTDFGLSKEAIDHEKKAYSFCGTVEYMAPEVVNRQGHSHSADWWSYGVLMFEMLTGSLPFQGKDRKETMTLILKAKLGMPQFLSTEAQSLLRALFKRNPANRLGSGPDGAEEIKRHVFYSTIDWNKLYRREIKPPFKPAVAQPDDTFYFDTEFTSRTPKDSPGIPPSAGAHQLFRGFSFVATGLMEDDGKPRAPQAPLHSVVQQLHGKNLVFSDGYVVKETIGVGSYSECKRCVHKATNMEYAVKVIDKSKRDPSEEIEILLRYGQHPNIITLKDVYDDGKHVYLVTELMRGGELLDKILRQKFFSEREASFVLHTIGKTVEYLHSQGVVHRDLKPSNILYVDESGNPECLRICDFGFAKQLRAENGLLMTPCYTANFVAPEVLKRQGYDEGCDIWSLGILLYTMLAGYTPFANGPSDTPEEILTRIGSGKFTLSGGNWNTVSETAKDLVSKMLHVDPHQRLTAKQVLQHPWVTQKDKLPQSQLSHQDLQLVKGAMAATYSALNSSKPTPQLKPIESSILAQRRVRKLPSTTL
TBK1 (human), sequence (Q9UHD2 whole entry, looked up): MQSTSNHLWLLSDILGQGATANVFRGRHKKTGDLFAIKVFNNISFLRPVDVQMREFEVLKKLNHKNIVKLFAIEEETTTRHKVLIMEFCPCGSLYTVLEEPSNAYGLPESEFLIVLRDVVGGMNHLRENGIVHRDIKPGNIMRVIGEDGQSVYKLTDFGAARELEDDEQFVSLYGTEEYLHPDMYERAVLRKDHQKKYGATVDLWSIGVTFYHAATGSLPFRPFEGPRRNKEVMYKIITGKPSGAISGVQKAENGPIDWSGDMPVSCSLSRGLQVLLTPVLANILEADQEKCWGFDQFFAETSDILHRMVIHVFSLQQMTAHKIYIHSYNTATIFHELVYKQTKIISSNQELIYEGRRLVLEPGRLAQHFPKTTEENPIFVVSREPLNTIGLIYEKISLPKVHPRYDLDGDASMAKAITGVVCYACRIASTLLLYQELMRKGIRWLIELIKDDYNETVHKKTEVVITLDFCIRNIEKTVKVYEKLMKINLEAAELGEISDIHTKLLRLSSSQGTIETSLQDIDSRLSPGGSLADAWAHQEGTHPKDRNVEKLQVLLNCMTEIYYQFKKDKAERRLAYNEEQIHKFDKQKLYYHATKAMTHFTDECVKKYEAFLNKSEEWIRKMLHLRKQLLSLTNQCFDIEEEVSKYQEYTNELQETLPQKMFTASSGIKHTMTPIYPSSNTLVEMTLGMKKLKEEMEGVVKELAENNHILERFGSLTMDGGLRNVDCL
STK10 (human), sequence (O94804 whole entry, looked up): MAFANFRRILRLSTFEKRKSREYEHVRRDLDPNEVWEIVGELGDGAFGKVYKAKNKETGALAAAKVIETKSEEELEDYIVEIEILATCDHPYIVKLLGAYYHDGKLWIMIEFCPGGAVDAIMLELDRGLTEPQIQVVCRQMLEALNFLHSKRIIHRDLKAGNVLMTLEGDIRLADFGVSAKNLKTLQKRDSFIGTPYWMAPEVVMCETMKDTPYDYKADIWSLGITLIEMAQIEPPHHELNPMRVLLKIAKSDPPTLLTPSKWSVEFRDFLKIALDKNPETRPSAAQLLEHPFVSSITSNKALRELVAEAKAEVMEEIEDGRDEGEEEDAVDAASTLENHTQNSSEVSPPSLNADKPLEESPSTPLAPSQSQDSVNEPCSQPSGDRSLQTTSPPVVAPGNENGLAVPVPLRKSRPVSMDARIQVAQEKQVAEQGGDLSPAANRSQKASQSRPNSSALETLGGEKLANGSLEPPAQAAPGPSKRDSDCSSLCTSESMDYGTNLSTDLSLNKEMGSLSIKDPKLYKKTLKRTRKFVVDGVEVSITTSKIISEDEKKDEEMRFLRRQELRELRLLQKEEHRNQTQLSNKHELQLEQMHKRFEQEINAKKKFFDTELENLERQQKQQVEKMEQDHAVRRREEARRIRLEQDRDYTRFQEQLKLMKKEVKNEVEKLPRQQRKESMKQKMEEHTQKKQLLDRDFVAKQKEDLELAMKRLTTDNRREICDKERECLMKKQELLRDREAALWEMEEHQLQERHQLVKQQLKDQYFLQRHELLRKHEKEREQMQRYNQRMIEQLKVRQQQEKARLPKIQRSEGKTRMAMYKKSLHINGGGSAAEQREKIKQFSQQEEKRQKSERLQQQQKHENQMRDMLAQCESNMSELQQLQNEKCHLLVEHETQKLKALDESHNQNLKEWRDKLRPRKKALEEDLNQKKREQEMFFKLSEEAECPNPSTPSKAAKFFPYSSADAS
CSNK1A1 (human), sequence (P48729 whole entry, looked up): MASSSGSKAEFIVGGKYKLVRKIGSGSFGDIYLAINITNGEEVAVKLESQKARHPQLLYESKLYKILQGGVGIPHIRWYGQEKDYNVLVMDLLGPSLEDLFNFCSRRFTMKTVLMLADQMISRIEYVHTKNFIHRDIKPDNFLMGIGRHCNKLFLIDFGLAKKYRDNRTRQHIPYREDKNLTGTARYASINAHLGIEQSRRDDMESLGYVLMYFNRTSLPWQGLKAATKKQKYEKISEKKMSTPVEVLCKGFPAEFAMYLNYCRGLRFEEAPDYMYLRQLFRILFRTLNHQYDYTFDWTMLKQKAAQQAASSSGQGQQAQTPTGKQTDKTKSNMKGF

| Compound | residual activity (RPS6KA1 KD1 KD2 (human)) [%] | residual activity (CSNK2A1 (human)) [%] | residual activity (WNK3 (human)) [%] | residual activity (TGFBR2 (human)) [%] | residual activity (PAK1 (human)) [%] | residual activity (MAPKAPK3 (human)) [%] | residual activity (KIT (human)) [%] | residual activity (CAMK2B (human)) [%] | residual activity (STK10 (human)) [%] | residual activity (AXL (human)) [%] | residual activity (MAPK11 (human)) [%] | residual activity (CDK6 CCND3 (human)) [%] | residual activity (PLK3 (human)) [%] | residual activity (ERBB4 (human)) [%] | residual activity (SRC (human)) [%] | residual activity (PRKD1 (human)) [%] | residual activity (FYN (human)) [%] | residual activity (CDK1 CCNB1 (human)) [%] | residual activity (WEE1 (human)) [%] | residual activity (PRKD2 (human)) [%] | other results |
| --- | --- | --- | --- | --- | --- | --- | --- | --- | --- | --- | --- | --- | --- | --- | --- | --- | --- | --- | --- | --- | --- |
| Nc1cccc(-c2cc3c(Oc4cccc(O)c4)ncnc3[nH]2)c1 | 105 | 96.8 | 88.5 | 42.6 | 88 | 97.6 | 35.1 | 101 | 45.8 | 75.9 | 108 | 91.3 | 95.7 | 75.8 | 2.07 | 94.4 | 7.92 | 98.9 | 85.5 | 81.7 | residual activity (PDGFRA (human)): 73.6%; residual activity (TBK1 (human)): 92.9%; residual activity (CHEK1 (human)): 66.2%; residual activity (GRK5 (human)): 128%; residual activity (RPS6KA2 KD1 KD2 (human)): 91.5%; residual activity (RAF1 (human)): 85.9%; residual activity (MAPK1 (human)): 114%; residual activity (CDK9 CCNT1 (human)): 63.2%; residual activity (RET (human)): -0.229%; residual activity (CDK5 CDK5R1 p25 (human)): 114%; residual activity (FRK (human)): 6.95%; residual activity (ALK (human)): 80.9%; residual activity (CSNK1A1 (human)): 61.8%; residual activity (MAPK13 (human)): 104%; residual activity (FLT3 (human)): 30.7%; residual activity (GRK7 (human)): 102%; residual activity (MAP4K5 (human)): 18.4%; residual activity (GRK4 (human)): 94.7%; residual activity (FLT1 (human)): 8.56%; residual activity (PRKACA (human)): 92.3% |
| Oc1cccc(-c2nc(N3CCOCC3)c3oc4ncccc4c3n2)c1 | 79.5 | 94.7 | 93.9 | 102 | 97.6 | 93.9 | 88.9 | 98.2 | 92.1 | 105 | 103 | 89.7 | 94.6 | 97.6 | 97.2 | 98.3 | 91.7 | 108 | 81.6 | 93.8 | residual activity (PDGFRA (human)): 99.4%; residual activity (EPHB4 (human)): 104%; residual activity (TBK1 (human)): 93%; residual activity (RPS6KA2 KD1 KD2 (human)): 88.1%; residual activity (RAF1 (human)): 79.1%; residual activity (MAPK1 (human)): 89%; residual activity (CDK9 CCNT1 (human)): 105%; residual activity (RET (human)): 99.8%; residual activity (CDK5 CDK5R1 p25 (human)): 77.9%; residual activity (FRK (human)): 91.3%; residual activity (ALK (human)): 90.5%; residual activity (CSNK1A1 (human)): 87.9%; residual activity (MAPK13 (human)): 97.4%; residual activity (FLT3 (human)): 87.1%; residual activity (GRK7 (human)): 100%; residual activity (MAP4K5 (human)): 82.4%; residual activity (GRK4 (human)): 102%; residual activity (FLT1 (human)): 83.6%; residual activity (PRKACA (human)): 99.5% |
| O=S(=O)(c1cccc2cnccc12)N1CCCNCC1 | 89.2 | 94.9 | 98.1 | 97 | 94.6 | 99.7 | 96.7 | 93.2 | 103 | 97.2 | 91.9 | 95.8 | 102 | 101 | 85.3 | 65.1 | 106 | 92.7 | 99.9 | 85 | residual activity (EPHB4 (human)): 107%; residual activity (GRK5 (human)): 109%; residual activity (RPS6KA2 KD1 KD2 (human)): 79.9%; residual activity (RAF1 (human)): 98.3%; residual activity (MAPK1 (human)): 98.1%; residual activity (CDK9 CCNT1 (human)): 80.7%; residual activity (RET (human)): 97.8%; residual activity (FRK (human)): 78.1%; residual activity (ALK (human)): 119%; residual activity (MAPK13 (human)): 98.8%; residual activity (FLT3 (human)): 103%; residual activity (GRK7 (human)): 114%; residual activity (MAP4K5 (human)): 36.3%; residual activity (GRK4 (human)): 104%; residual activity (FLT1 (human)): 90% |
| COc1ccc(COc2ccc(Cc3cnc(N)nc3N)cc2OC)cc1 | 92.7 | 105 | 100 | 127 | 93.4 | 96 | 106 | 100 | 100 | 96.4 | 98.7 | 94.5 | 95.9 | 110 | 97.9 | 95.2 | 102 | 91.3 | 90.3 | 99.4 | residual activity (PDGFRA (human)): 99.4%; residual activity (EPHB4 (human)): 90.5%; residual activity (TBK1 (human)): 103%; residual activity (CHEK1 (human)): 107%; residual activity (GRK5 (human)): 109%; residual activity (RPS6KA2 KD1 KD2 (human)): 105%; residual activity (MAPK1 (human)): 110%; residual activity (CDK9 CCNT1 (human)): 92.5%; residual activity (RET (human)): 108%; residual activity (CDK5 CDK5R1 p25 (human)): 103%; residual activity (ALK (human)): 97.4%; residual activity (CSNK1A1 (human)): 97.9%; residual activity (MAPK13 (human)): 96%; residual activity (FLT3 (human)): 103%; residual activity (GRK7 (human)): 104%; residual activity (MAP4K5 (human)): 97.4%; residual activity (GRK4 (human)): 106%; residual activity (FLT1 (human)): 99.7%; residual activity (PRKACA (human)): 104% |
| CC(C)N(CCC(=O)c1ccc2ccccc2c1)Cc1ccccc1 | 97.6 | 98.1 | 97 | 98.8 | 98.3 | 95.7 | 86.5 | 96.6 | 93.6 | 108 | 108 | 102 | 105 | 91.7 | 93.2 | 98 | 95.3 | 104 | 92.1 | 98.5 | residual activity (PDGFRA (human)): 96.5%; residual activity (EPHB4 (human)): 102%; residual activity (TBK1 (human)): 92.4%; residual activity (CHEK1 (human)): 106%; residual activity (GRK5 (human)): 93.7%; residual activity (RAF1 (human)): 87.3%; residual activity (MAPK1 (human)): 87.4%; residual activity (CDK9 CCNT1 (human)): 96.4%; residual activity (RET (human)): 101%; residual activity (CDK5 CDK5R1 p25 (human)): 96.5%; residual activity (FRK (human)): 95.8%; residual activity (ALK (human)): 88.9%; residual activity (CSNK1A1 (human)): 88.4%; residual activity (MAPK13 (human)): 96.2%; residual activity (FLT3 (human)): 97.5%; residual activity (GRK7 (human)): 121%; residual activity (MAP4K5 (human)): 90.2%; residual activity (GRK4 (human)): 94.9%; residual activity (FLT1 (human)): 86% |
